# Results: US20210041441A1, “DISCOVERY OF NOVEL MOLECULES AND REPURPOSED DRUGS FOR RAS FAMILY GTPases” (UNM Rainforest Innovations, priority 2018, published 2021)
# “Also recorded” adds a separate entry of the source. Structures can show the parent of a compound that is named as a salt.
# Test system: Ras family GTPases (KRas WT, G12v, G13d, G12a, G12c, G12d, Q61H, Q61L, Q61R; HRas WT, HRas G12v; CDC42 WT, CDC42 L61; Rac1 WT, Rac1 L61)
# Assay: Multiplex flow cytometry Bodipy FL-GTP binding, compound screen and dose response
# Conditions: for class of modulation of Bodipy-GTP binding to Ras family GTPases (pan activator, pan inhibitor, selective inhibitor, mixed activity modulator): multiplex, 10 nM Bodipy FL-GTP, compound 100-0.015 μM, normalized to DMSO; for activity or affinity relative to other compounds / selectivity among GTPases (RAS vs non-RAS, individual proteins): multiplex dose response
compound,measurement,setting,value
Cc1ccc(Cl)c(Nc2ccccc2C(=O)O)c1Cl [Meclofenamic acid sodium salt monohydrate],"class of modulation of Bodipy-GTP binding to Ras family GTPases (pan activator, pan inhibitor, selective inhibitor, mixed activity modulator)","listed as meclofenamic acid sodium salt monohydrate, sodium salt monohydrate",Pan activators
same,"class of modulation of Bodipy-GTP binding to Ras family GTPases (pan activator, pan inhibitor, selective inhibitor, mixed activity modulator)",sodium salt monohydrate,pan activators
Cc1c(Cl)cccc1Nc1ccccc1C(=O)O [Tolfenamic acid],"class of modulation of Bodipy-GTP binding to Ras family GTPases (pan activator, pan inhibitor, selective inhibitor, mixed activity modulator)",,pan activators
same,"class of modulation of Bodipy-GTP binding to Ras family GTPases (pan activator, pan inhibitor, selective inhibitor, mixed activity modulator)",listed as tolfenamic acid,Pan activators
O=C(O)c1ccccc1Nc1cccc(C(F)(F)F)c1 [Flufenamic Acid],"class of modulation of Bodipy-GTP binding to Ras family GTPases (pan activator, pan inhibitor, selective inhibitor, mixed activity modulator)",,pan activators
same,"class of modulation of Bodipy-GTP binding to Ras family GTPases (pan activator, pan inhibitor, selective inhibitor, mixed activity modulator)",listed as fufenamic acid,Pan activators
CC(C(=O)O)c1ccc(-c2ccccc2)c(F)c1 (centres unmarked) [Flurbiprofen],"class of modulation of Bodipy-GTP binding to Ras family GTPases (pan activator, pan inhibitor, selective inhibitor, mixed activity modulator)",,pan activators
same,"class of modulation of Bodipy-GTP binding to Ras family GTPases (pan activator, pan inhibitor, selective inhibitor, mixed activity modulator)",listed as fluribuprofen,Pan activators
Nc1nc2ncc(CNc3ccc(C(=O)N[C@@H](CCC(=O)O)C(=O)O)cc3)nc2c(=O)[nH]1 [Folic acid],"class of modulation of Bodipy-GTP binding to Ras family GTPases (pan activator, pan inhibitor, selective inhibitor, mixed activity modulator)",,pan inhibitors
Cc1cccc(Nc2ccccc2C(=O)O)c1C [Mefenamic Acid],"class of modulation of Bodipy-GTP binding to Ras family GTPases (pan activator, pan inhibitor, selective inhibitor, mixed activity modulator)",,pan activators
same,"class of modulation of Bodipy-GTP binding to Ras family GTPases (pan activator, pan inhibitor, selective inhibitor, mixed activity modulator)",listed as mefenamic acid,Pan activators
COc1ccc(C(=O)c2ccccc2O)c(O)c1 [Dioxybenzone],"class of modulation of Bodipy-GTP binding to Ras family GTPases (pan activator, pan inhibitor, selective inhibitor, mixed activity modulator)",,pan activators
same,"class of modulation of Bodipy-GTP binding to Ras family GTPases (pan activator, pan inhibitor, selective inhibitor, mixed activity modulator)",listed as dioxybenzone,activators
CC(C)Cc1ccc(C(C)C(=O)O)cc1 (stereo not drawn) [S-(+)-Ibuprofen],activity or affinity relative to other compounds,,lower affinity than the mixture
O=C1c2ccccc2S(=O)(=O)N1CCCCN1CCN(c2ncccn2)CC1 [Ipsapirone],"class of modulation of Bodipy-GTP binding to Ras family GTPases (pan activator, pan inhibitor, selective inhibitor, mixed activity modulator)",,mixed activity modulators
same,"class of modulation of Bodipy-GTP binding to Ras family GTPases (pan activator, pan inhibitor, selective inhibitor, mixed activity modulator)",listed as ipsapirone,modulators with mixed activity
COc1ccc2cc([C@H](C)C(=O)O)ccc2c1 [Naproxen],"class of modulation of Bodipy-GTP binding to Ras family GTPases (pan activator, pan inhibitor, selective inhibitor, mixed activity modulator)",,pan activators
same,"class of modulation of Bodipy-GTP binding to Ras family GTPases (pan activator, pan inhibitor, selective inhibitor, mixed activity modulator)",listed as naproxen,Pan activators
CCN(CC)CCN(Cc1ccc(-c2ccc(C(F)(F)F)cc2)cc1)C(=O)Cn1c(SCc2ccc(F)cc2)nc(=O)c2c1CCC2 [Darapladib],"class of modulation of Bodipy-GTP binding to Ras family GTPases (pan activator, pan inhibitor, selective inhibitor, mixed activity modulator)",,mixed activity modulators
same,"class of modulation of Bodipy-GTP binding to Ras family GTPases (pan activator, pan inhibitor, selective inhibitor, mixed activity modulator)",listed as darapladib,modulators with mixed activity
O=C(Oc1ccccc1C(=O)O)c1ccccc1O [Salsalate],"class of modulation of Bodipy-GTP binding to Ras family GTPases (pan activator, pan inhibitor, selective inhibitor, mixed activity modulator)",,pan activators
same,"class of modulation of Bodipy-GTP binding to Ras family GTPases (pan activator, pan inhibitor, selective inhibitor, mixed activity modulator)",listed as salsalate,Pan activators
Oc1ccc2ccccc2c1SSc1c(O)ccc2ccccc12 [IPA 3],"class of modulation of Bodipy-GTP binding to Ras family GTPases (pan activator, pan inhibitor, selective inhibitor, mixed activity modulator)",,pan inhibitors
N#CSc1cc(SC#N)c(N)nc1N [PR-619],"class of modulation of Bodipy-GTP binding to Ras family GTPases (pan activator, pan inhibitor, selective inhibitor, mixed activity modulator)",,pan inhibitors
O=C(NCCS(=O)(=O)c1ccc(C(F)(F)F)cn1)c1ccc(Cl)cc1 [GSK 3787],"class of modulation of Bodipy-GTP binding to Ras family GTPases (pan activator, pan inhibitor, selective inhibitor, mixed activity modulator)",,pan inhibitors
same,"class of modulation of Bodipy-GTP binding to Ras family GTPases (pan activator, pan inhibitor, selective inhibitor, mixed activity modulator)",listed as GSK3787,Pan inhibitors
A-7 hydrochloride,"class of modulation of Bodipy-GTP binding to Ras family GTPases (pan activator, pan inhibitor, selective inhibitor, mixed activity modulator)",,pan activators
COc1ccc2cc([C@@H](C)C(=O)[O-])ccc2c1.[Na+] [(R)-Naproxen sodium salt],activity or affinity relative to other compounds,,greater activity than did the naproxen sample
same,"class of modulation of Bodipy-GTP binding to Ras family GTPases (pan activator, pan inhibitor, selective inhibitor, mixed activity modulator)","listed as (R)-naproxen sodium salt, sodium salt",Pan activators
same,"class of modulation of Bodipy-GTP binding to Ras family GTPases (pan activator, pan inhibitor, selective inhibitor, mixed activity modulator)",sodium salt,pan activators
CN1CCC(=C2c3ccccc3Sc3ccccc32)CC1 [Pimethixene Maleate],"class of modulation of Bodipy-GTP binding to Ras family GTPases (pan activator, pan inhibitor, selective inhibitor, mixed activity modulator)",,mixed activity modulators
same,"class of modulation of Bodipy-GTP binding to Ras family GTPases (pan activator, pan inhibitor, selective inhibitor, mixed activity modulator)",listed as pimethixene maleate,modulators with mixed activity
same,"class of modulation of Bodipy-GTP binding to Ras family GTPases (pan activator, pan inhibitor, selective inhibitor, mixed activity modulator)",listed as pimethixine maleate,mixed activity
CN(C)CCCn1cc(C2=C(c3c[nH]c4ccccc34)C(=O)NC2=O)c2ccccc21 [GF109203X],"selectivity among GTPases (RAS vs non-RAS, individual proteins)",,selective activator non-RAS
same,"class of modulation of Bodipy-GTP binding to Ras family GTPases (pan activator, pan inhibitor, selective inhibitor, mixed activity modulator)",,modulators with mixed activity
CC1(C)CCC2=C(O1)c1ccccc1C(=O)C2=O [Beta Lapachone],"selectivity among GTPases (RAS vs non-RAS, individual proteins)",,RAS activator/non-RAS inhibitor
same,"class of modulation of Bodipy-GTP binding to Ras family GTPases (pan activator, pan inhibitor, selective inhibitor, mixed activity modulator)",,mixed activity modulators
same,"class of modulation of Bodipy-GTP binding to Ras family GTPases (pan activator, pan inhibitor, selective inhibitor, mixed activity modulator)",listed as B-lapachone,mixed activity
same,"class of modulation of Bodipy-GTP binding to Ras family GTPases (pan activator, pan inhibitor, selective inhibitor, mixed activity modulator)",listed as Beta-lapachone,modulators with mixed activity
CCC(Cc1c(I)cc(I)c(N)c1I)C(=O)O (centres unmarked) [Iopanic acid],"class of modulation of Bodipy-GTP binding to Ras family GTPases (pan activator, pan inhibitor, selective inhibitor, mixed activity modulator)",,pan activators
same,"class of modulation of Bodipy-GTP binding to Ras family GTPases (pan activator, pan inhibitor, selective inhibitor, mixed activity modulator)",listed as iopanic acid,activators
COc1cc(C)c(C(=O)Oc2cc(C)c(C(=O)O)c(O)c2C)c(OC)c1C [Diffractaic acid],"class of modulation of Bodipy-GTP binding to Ras family GTPases (pan activator, pan inhibitor, selective inhibitor, mixed activity modulator)",,pan inhibitors
same,"class of modulation of Bodipy-GTP binding to Ras family GTPases (pan activator, pan inhibitor, selective inhibitor, mixed activity modulator)",listed as Diffractaic Acid,Pan inhibitors
Cc1cc(I)ccc1Nc1c(C(=O)NOCC2CC2)cc(F)c(F)c1F [PD 198306],"class of modulation of Bodipy-GTP binding to Ras family GTPases (pan activator, pan inhibitor, selective inhibitor, mixed activity modulator)",,mixed activity modulators
same,"class of modulation of Bodipy-GTP binding to Ras family GTPases (pan activator, pan inhibitor, selective inhibitor, mixed activity modulator)",listed as PD198306,"mixed activity with mostly activation, but some inhibition as well; also recorded: modulators with mixed activity"
CC1=CC(=O)c2ccccc2C1=O [Menindione],"class of modulation of Bodipy-GTP binding to Ras family GTPases (pan activator, pan inhibitor, selective inhibitor, mixed activity modulator)",,PanActivators
O=c1c(O)c(-c2ccc(O)c(O)c2)oc2cc(O)ccc12 [Fisetin],"class of modulation of Bodipy-GTP binding to Ras family GTPases (pan activator, pan inhibitor, selective inhibitor, mixed activity modulator)",,pan inhibitors
